US20260262643A1, “HERBICIDAL BENZOXAZINES” (FMC CORPORATION, priority 2022, published 2026)
Like-named read-outs stand apart in the source and are kept apart here.

Experiments:
corn [1] = experiment: Test A preemergence; format: in vivo, Zea mays; conditions: Zea mays, pre-emergence, 240 h; for Corn plant response rating (crop injury, 0 = no effect, 100 = complete kill) at 125 g/ha: 125 g ai/ha; for Corn plant response rating (crop injury, 0 = no effect, 100 = complete kill) at 500 g/ha: 500 g ai/ha
Method in brief: (§1)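 Greenhouse pot test, 10 days. Compound (non-phytotoxic solvent, surfactant) sprayed on soil at seeding or on seedlings at one- to two-leaf stage. Visual injury rated 0–100 against untreated plants.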

foxtail, giant [2] = experiment: Test A preemergence; format: in vivo, Setaria faberi; conditions: Setaria faberi, pre-emergence, 240 h, read-out: Plant response rating, Foxtail, Giant; for pest or weed control at 125 g/ha: 125 g ai/ha; for pest or weed control at 500 g/ha: 500 g ai/ha
Method in brief: as §1

pigweed, palmer [3] = experiment: Test A preemergence; format: in vivo, Amaranthus palmeri; conditions: Amaranthus palmeri, pre-emergence, 240 h, read-out: Plant response rating, Pigweed, Palmer; for pest or weed control at 125 g/ha: 125 g ai/ha; for pest or weed control at 500 g/ha: 500 g ai/ha
Method in brief: as §1

ragweed [4] = experiment: Test A preemergence; format: in vivo, Ambrosia artemisiifolia; conditions: Ambrosia artemisiifolia, pre-emergence, 240 h, read-out: Plant response rating, Ragweed; for pest or weed control at 125 g/ha: 125 g ai/ha; for pest or weed control at 500 g/ha: 500 g ai/ha
Method in brief: as §1

ryegrass, Italian = experiment: Test A preemergence; format: in vivo, Lolium multiflorum; conditions: Lolium multiflorum, pre-emergence, 240 h, read-out: Plant response rating, Ryegrass, Italian; for pest or weed control at 125 g/ha: 125 g ai/ha; for pest or weed control at 500 g/ha: 500 g ai/ha
Method in brief: as §1

wheat = experiment: Test A preemergence; format: in vivo, Triticum aestivum; conditions: Triticum aestivum, pre-emergence, 240 h, read-out: Plant response rating, Wheat; for plant injury at 125 g/ha: 125 g ai/ha; for plant injury at 500 g/ha: 500 g ai/ha
Method in brief: as §1

corn [5] = experiment: Test A postemergence; format: in vivo, Zea mays; conditions: Zea mays, post-emergence, 240 h, postemergence, 10 days, 0 to 100 scale (0 no effect, 100 complete control); for plant injury at 125 g/ha: 125 g ai/ha, read-out: Corn plant response rating; for Corn plant response rating (crop injury, 0 = no effect, 100 = complete kill) at 500 g/ha: 500 g ai/ha, visual injury
Method in brief: as §1

foxtail, giant [6] = experiment: Test A postemergence; format: in vivo, Setaria faberi; conditions: Setaria faberi, post-emergence, 240 h, postemergence, 10 days, 0 to 100 scale (0 no effect, 100 complete control); for pest or weed control at 125 g/ha: 125 g ai/ha, read-out: Foxtail, Giant plant response rating; for pest or weed control at 500 g/ha: 500 g ai/ha, visual injury, read-out: Plant response rating, Foxtail, Giant
Method in brief: as §1

kochia = experiment: Test A postemergence; format: in vivo, Bassia scoparia; conditions: Bassia scoparia, post-emergence, 240 h, postemergence, 10 days, 0 to 100 scale (0 no effect, 100 complete control); for pest or weed control at 125 g/ha: 125 g ai/ha, read-out: Kochia plant response rating; for pest or weed control at 500 g/ha: 500 g ai/ha, visual injury, read-out: Plant response rating, Kochia
Method in brief: as §1

pigweed, palmer [7] = experiment: Test A postemergence; format: in vivo, Amaranthus palmeri; conditions: Amaranthus palmeri, post-emergence, 240 h, postemergence, 10 days, 0 to 100 scale (0 no effect, 100 complete control); for pest or weed control at 125 g/ha: 125 g ai/ha, read-out: Pigweed, Palmer plant response rating; for pest or weed control at 500 g/ha: 500 g ai/ha, visual injury, read-out: Plant response rating, Pigweed, Palmer
Method in brief: as §1

ragweed [8] = experiment: Test A postemergence; format: in vivo, Ambrosia artemisiifolia; conditions: Ambrosia artemisiifolia, post-emergence, 240 h, postemergence, 10 days, 0 to 100 scale (0 no effect, 100 complete control); for pest or weed control at 125 g/ha: 125 g ai/ha, read-out: Ragweed plant response rating; for pest or weed control at 500 g/ha: 500 g ai/ha, visual injury, read-out: Plant response rating, Ragweed
Method in brief: as §1

soybean = experiment: Test A postemergence; format: in vivo, Glycine max; conditions: Glycine max, post-emergence, 240 h, postemergence, 10 days, 0 to 100 scale (0 no effect, 100 complete control); for plant injury at 125 g/ha: 125 g ai/ha, read-out: Soybean plant response rating; for plant injury at 500 g/ha: 500 g ai/ha, visual injury, read-out: Plant response rating, Soybean
Method in brief: as §1

horseweed = experiment: Test A postemergence; format: in vivo, Erigeron canadensis; conditions: Erigeron canadensis, post-emergence, 240 h, postemergence, 10 days, 0 to 100 scale (0 no effect, 100 complete control); for pest or weed control at 125 g/ha: 125 g ai/ha, read-out: Horseweed plant response rating; for pest or weed control at 500 g/ha: 500 g ai/ha, visual injury, read-out: Plant response rating, Horseweed
Method in brief: as §1

barnyardgrass = experiment: Test B flooded paddy test; format: in vivo, Echinochloa crus-galli; conditions: Echinochloa crus-galli, 312 h, 250 g ai/ha, Flood, 13 days, 0 to 100 scale (0 no effect, 100 complete control); read-out: Plant response rating, Barnyardgrass
Method in brief: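 Plants at the 2-leaf stage were flooded to 3 cm above the soil, and test compounds were applied directly into the paddy water, with that depth held throughout. After 13 days in a greenhouse, injury was rated visually against untreated controls on a 0–100 scale (100 = complete control).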

[9] = visual injury after 10 days, 0 to 100 scale, 0 is no effect, 100 is complete control
[10] = 0 to 100 scale (0 no effect, 100 complete control), 10 days

SMILES	plant injury at 125 g/ha (corn [5]) [%]	Corn plant response rating (crop injury, 0 = no effect, 100 = complete kill) at 500 g/ha (corn [5]) [%]	pest or weed control at 125 g/ha (foxtail, giant [6]) [%]	pest or weed control at 500 g/ha (foxtail, giant [6]) [%]	pest or weed control at 125 g/ha (kochia) [%]	pest or weed control at 500 g/ha (kochia) [%]	pest or weed control at 125 g/ha (pigweed, palmer [7]) [%]	pest or weed control at 500 g/ha (pigweed, palmer [7]) [%]	pest or weed control at 125 g/ha (ragweed [8]) [%]	pest or weed control at 500 g/ha (ragweed [8]) [%]	plant injury at 125 g/ha (soybean) [%]	plant injury at 500 g/ha (soybean) [%]	pest or weed control at 125 g/ha (horseweed) [%]	pest or weed control at 500 g/ha (horseweed) [%]	pest or weed control at 250 g/ha (barnyardgrass) [%]	Corn plant response rating (crop injury, 0 = no effect, 100 = complete kill) at 125 g/ha (corn [1]; [9]) [%]	Corn plant response rating (crop injury, 0 = no effect, 100 = complete kill) at 500 g/ha (corn [1]; [10]) [%]	pest or weed control at 125 g/ha (foxtail, giant [2]; [9]) [%]	pest or weed control at 500 g/ha (foxtail, giant [2]; [10]) [%]	pest or weed control at 125 g/ha (pigweed, palmer [3]; [9]) [%]	further results
C[C@H]1CN(C(=S)c2cccc(-n3cncn3)c2)c2cccc(Cl)c2O1 [Compound 139, [(2S)-8-Chloro-2,3-dihydro-2-methyl-4H-1,4-benzoxazin-4-yl][3-(1H-1,2,4-triazol-1-yl)phenyl]methanethione]	40	60	80	100	50	80	40	80	0	30	90	100	0	0	15	–	–	–	–	–	Corn plant response rating (crop injury, 0 = no effect, 100 = complete kill) at 125 g/ha (corn [1]; 0 to 100 scale): 0%; Corn plant response rating (crop injury, 0 = no effect, 100 = complete kill) at 500 g/ha (corn [1]; [9]): 40%; pest or weed control at 125 g/ha (foxtail, giant [2]; 0 to 100 scale): 90%; pest or weed control at 500 g/ha (foxtail, giant [2]; [9]): 100%; pest or weed control at 125 g/ha (pigweed, palmer [3]; 0 to 100 scale): 40%; pest or weed control at 500 g/ha (pigweed, palmer [3]; [9]): 100%; pest or weed control at 125 g/ha (ragweed [4]; 0 to 100 scale): 0%; pest or weed control at 500 g/ha (ragweed [4]; [9]): 0%; pest or weed control at 125 g/ha (ryegrass, Italian; 0 to 100 scale): 50%; pest or weed control at 500 g/ha (ryegrass, Italian; [9]): 80%; plant injury at 125 g/ha (wheat; 0 to 100 scale): 20%; plant injury at 500 g/ha (wheat; [9]): 20%
COCc1ncn(-c2cccc(C(=O)N3C[C@H](C)Oc4c(C)cccc43)c2)n1 [Compound 101, [(2S)-2,3-Dihydro-2,8-dimethyl-4H-1,4-benzoxazin-4-yl][3-[3-(methoxymethyl)-1H-1,2,4-triazol-1-yl]phenyl]methanone]	70	80	90	90	70	80	50	60	50	50	70	100	0	30	15	0	60	90	100	90	pest or weed control at 500 g/ha (pigweed, palmer [3]; [10]): 100%; pest or weed control at 125 g/ha (ragweed [4]; [9]): 0%; pest or weed control at 500 g/ha (ragweed [4]; [10]): 20%; pest or weed control at 125 g/ha (ryegrass, Italian; [9]): 80%; pest or weed control at 500 g/ha (ryegrass, Italian; [10]): 90%; plant injury at 125 g/ha (wheat; [9]): 0%; plant injury at 500 g/ha (wheat; [10]): 50%
C[C@H]1CN(C(=O)c2cccc(-n3cnc(C4CCC4)n3)c2)c2cccc(Cl)c2O1 [Compound 93, [(2S)-8-Chloro-2,3-dihydro-2-methyl-4H-1,4-benzoxazin-4-yl][3-(3-cyclobutyl-1H-1,2,4-triazol-1-yl)phenyl]methanone]	60	90	60	90	80	90	90	100	50	50	100	100	0	40	0	10	10	80	100	90	pest or weed control at 500 g/ha (pigweed, palmer [3]; [10]): 100%; pest or weed control at 125 g/ha (ragweed [4]; [9]): 0%; pest or weed control at 500 g/ha (ragweed [4]; [10]): 0%; pest or weed control at 125 g/ha (ryegrass, Italian; [9]): 90%; pest or weed control at 500 g/ha (ryegrass, Italian; [10]): 100%; plant injury at 125 g/ha (wheat; [9]): 0%; plant injury at 500 g/ha (wheat; [10]): 10%
